Data: doi:10.1101/2025.10.05.680433v1 (biorxiv, 2025)

What was measured:
Assay in all cases: ITC
Format in all cases: binding
IGP1^ECD [1] = molecular target: IGP1^ECD (Arabidopsis thaliana, UniProt F4I3K3); settings: 10 mM Bis-Tris pH 6.0, 100 mM NaCl, 25 °C; LRR3-5 groove; 1:1 complex in crystal
IGP1^ECD [2] = molecular target: IGP1^ECD (Arabidopsis thaliana, UniProt F4I3K3, C591A/C592A); settings: 10 mM Bis-Tris pH 6.0, 100 mM NaCl, 25 °C
IGP1^ECD [3] = molecular target: IGP1^ECD (Arabidopsis thaliana, UniProt F4I3K3, W220A); settings: 10 mM Bis-Tris pH 6.0, 100 mM NaCl, 25 °C
IGP1^ECD [4] = molecular target: IGP1^ECD (Arabidopsis thaliana, UniProt F4I3K3, C591D/C592D); settings: 10 mM Bis-Tris pH 6.0, 100 mM NaCl, 25 °C

| Structure (SMILES) | Kd (IGP1^ECD [1]) | Kd (IGP1^ECD [2]) | Kd (IGP1^ECD [3]) | Kd (IGP1^ECD [4]) |
| --- | --- | --- | --- | --- |
| OC[C@H]1O[C@@H](O[C@H]2[C@H](O)[C@@H](O)[C@H](O[C@H]3[C@H](O)[C@@H](O)C(O)O[C@@H]3CO)O[C@@H]2CO)[C@H](O)[C@@H](O)[C@@H]1O (stereo partly shown) [CEL3, cellotriose] | ~1.61 µM |  |  |  |
| OC[C@H]1O[C@@H](O[C@H]2[C@H](O)[C@@H](O)[C@H](O[C@H]3[C@H](O)[C@@H](O)[C@H](O[C@H]4[C@H](O)[C@@H](O)C(O)O[C@@H]4CO)O[C@@H]3CO)O[C@@H]2CO)[C@H](O)[C@@H](O)[C@@H]1O (stereo partly shown) [CEL4, cellotetraose] |  | ~2.25 µM | ~18.6 µM | ~17.9 µM |
